For 46 compounds, IC50 results are on record in US9012446B2, “Amino-oxazines and amino-dihydrothiazine compounds as beta-secretase modulators and methods of use” (Amgen Inc., priority 2010, dated 2015).

Values joined by “and” are separate entries in the source; they are usually repeats but may differ in a detail not shown here. Equal values may be shown once. Read-outs that look alike come from different tables or passages of the source.

The subject of one assay is Aβ40. Kind of assay: In vitro BACE cell-based assay (Aβ40 sandwich ELISA, cells stably expressing APP). Put shortly: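 APP-stably-expressing cells, grown 24 h in DMEM/10% FBS, received 10-point compound doses starting at 100 μM or 10 μM (0.1% DMSO final). Secreted Aβ40 in supernatants measured by sandwich ELISA with time-resolved europium fluorescence; IC50 from percent inhibition versus concentration.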
(In an ELISA, binding on a coated surface is turned into a signal by an enzyme label.)

The next assay addresses BACE (Homo sapiens, UniProt P56817). Nature of the assay: In vitro enzymatic BACE FRET assay. In kind it is biochemical. The following applies: average IC50, enzyme assay; read-out: BACE 1 FRET assay. In outline:
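BACE (0.2 nM) preincubated 1 h with serially diluted inhibitors in 0.05 M acetate pH 4.2, 10% DMSO, 100 uM genapol. FRET peptide substrate (50 nM) added, 1 h incubation, then stopped with Tris to neutral pH. Fluorescence from cleavage read at […].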

The mark [1] stands for this setting: Homo sapiens, HEK293, average IC50, cell assay, HEK cells.
Where [2] appears, read: Homo sapiens, HEK293, average IC50, read-out: HEK cell assay.
[3] abbreviates: average IC50, read-out: HEK cell assay.

Sequence of BACE (P56817 46-501, species assumed): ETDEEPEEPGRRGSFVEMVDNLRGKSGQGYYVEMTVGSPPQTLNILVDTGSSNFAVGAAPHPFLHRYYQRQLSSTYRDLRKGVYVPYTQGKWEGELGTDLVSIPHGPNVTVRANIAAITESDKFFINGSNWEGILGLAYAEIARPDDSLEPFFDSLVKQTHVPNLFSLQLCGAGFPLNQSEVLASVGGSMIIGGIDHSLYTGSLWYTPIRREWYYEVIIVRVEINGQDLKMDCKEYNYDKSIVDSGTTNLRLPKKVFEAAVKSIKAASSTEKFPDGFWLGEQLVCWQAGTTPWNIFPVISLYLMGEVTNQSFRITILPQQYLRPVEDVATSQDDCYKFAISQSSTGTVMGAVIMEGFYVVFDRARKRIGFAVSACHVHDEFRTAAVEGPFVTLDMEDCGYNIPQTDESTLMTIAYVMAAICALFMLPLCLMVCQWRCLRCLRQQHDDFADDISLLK

In the case of `NC1=N[C@]2(COC1)c1cc(-c3cccnc3F)ccc1Oc1c(F)cc(-c3ccnc(F)c3)cc12` [36B], the IC50 with Aβ40 (setting [1]) was 0.628 µM; at BACE, 0.14 µM.

Consider `CC(C)(F)COc1cc(F)c2c(c1)[C@@]1(CCOC(N)=N1)c1cc(-c3cccnc3F)ccc1O2` [compound 181], for which the figures for the IC50 in the assay with Aβ40 (setting [2]) and on BACE were 1.16 µM and 1.37 µM, respectively.

For the compound `NC1=N[C@]2(COC1)c1cc(C3=CCCOC3)ccc1Oc1ccc(-c3cccnc3F)cc12` [compound 130], the IC50 came to 0.0122 µM in the assay on Aβ40 (setting [1]) and 0.0007 µM on BACE.

In the case of `NC1=N[C@]2(CCO1)c1cc(-c3cccnc3F)ccc1Oc1cnc(-c3cccnc3)cc12` [compound 147], the IC50 in the assay on Aβ40 (setting [1]) and on BACE was 0.132 µM each time.

`NC1=N[C@@]2(CCO1)c1cc(-c3cncc(F)c3)ccc1Oc1c2cc(C2=CCCOC2)nc1F` [compound 236]: the IC50 amounted to 0.0005 µM in the assay on Aβ40 (setting [2]) and 0.0008 µM at BACE.

As to `CC1(C#Cc2cnc3c(c2)[C@]2(COCC(N)=N2)c2cc(-c4cc(Cl)ccc4F)ccc2O3)COC1` [compound 95], the values for the IC50 in the assay on Aβ40 (setting [1]) and on BACE were 0.0012 µM and 0.0005 µM, respectively.

With `NC1=N[C@@]2(COC1)c1cc(-c3cccnc3F)ccc1Oc1cnc([C@@H]3CCCOC3)cc12` [compound 81], the IC50 came to 0.0041 µM in the assay on Aβ40 (setting [1]) and 0.0037 µM at BACE.

As to `NC1=N[C@@]2(COC1)c1cc(-c3cc(Cl)ccc3F)ccc1Oc1ncc(N3CC[C@@H](F)C3)cc12` [compound 92], the IC50 in the assay with Aβ40 (setting [1]) is 0.0019 µM; on BACE, 0.0006 µM.

Turning to `CC1(COc2cc(F)c3c(c2)[C@@]2(CCOC(N)=N2)c2cc(-c4cccnc4F)ccc2O3)COC1` [compound 171], the results for the IC50 in the assay on Aβ40 (setting [2]) and at BACE were 0.245 µM and 0.525 µM, respectively.

As to `NC1=NC2(CCS1)c1cc(-c3cccnc3)ccc1Oc1ccc(-c3cccnc3)cc12` [compound 99], the IC50 is 0.118 µM in the assay with Aβ40 (setting [1]) and 0.0818 µM at BACE.

For `CC1(COc2cc(F)c3c(c2)[C@]2(CCOC(N)=N2)c2cc(-c4cccnc4)ccc2O3)COC1` [compound 160], the IC50 in the assay with Aβ40 (setting [1]) was determined as 0.0059 µM; at BACE, 0.0063 µM.

In the case of `NC1=N[C@]2(COC1)c1cc(-c3cccnc3F)ccc1Oc1c(F)cc(N3CCOCC3)cc12` [35B], the IC50 with Aβ40 (setting [1]) came to 0.0862 µM; on BACE, 0.211 µM.

In the case of `NC1=N[C@@]2(COC1)c1cc(-c3cc(F)ccc3F)ccc1Oc1ncc(-c3ccncc3)cc12` [compound 217], the IC50 is 0.0043 µM in the assay with Aβ40 (setting [2]) and 0.0036 µM on BACE.

Take `NC1=N[C@]2(CCO1)c1cc(-c3cccnc3F)ccc1Oc1c(F)cc(-c3ccnc(F)c3)cc12` [compound 183]: the IC50 in the assay with Aβ40 (setting [3]) is 0.0154 µM; on BACE, 0.007 µM.

Regarding `NC1=N[C@]2(CCS1)c1cc(-c3cccnc3F)ccc1Oc1cnc(Cl)cc12` [compound 192], the IC50 in the assay with Aβ40 (setting [2]) stood at 5.61 µM; at BACE it was 3.35 µM.

With `CC(C)(C)C#Cc1ccc2c(c1)[C@@]1(COCC(N)=N1)c1cc(-c3ccnc(F)c3)cnc1O2` [compound 219], the IC50 with Aβ40 (setting [2]) stood at 0.0248 µM; at BACE, 0.0059 µM.

Consider `NC1=N[C@@]2(COC1)c1cc(-c3cccnc3F)ccc1Oc1c(F)cc(N3CC[C@@H](F)C3)cc12` [compound 85], for which the IC50 in the assay on Aβ40 (setting [1]) was found to be 0.101 µM; at BACE, 0.0397 µM.

On to `CC(C)(C)C#Cc1cnc2c(c1)[C@]1(COCC(N)=N1)c1cc(-c3cccnc3)ccc1O2` [Example 52, (S)-3-(3,3-dimethylbut-1-ynyl)-7-(pyridin-3-yl)-2′,6′-dihydrospiro[chromeno[2,3-b]pyridine-5,3′-[1,4]oxazin]-5′-amine], for which the IC50 with Aβ40 (setting [2]) turned out to be 0.0003 µM; on BACE, 0.0004 µM.

As to `NC1=N[C@]2(CCS1)c1cc(-c3cccnc3F)ccc1Oc1c(F)cc(C3=CCOCC3)cc12` [compound 196], the IC50 in the assay with Aβ40 (setting [2]) was 0.0831 µM; on BACE, 2.53 µM.

With `CC(C)Oc1cc2c(cn1)Oc1ccc(-c3cccnc3F)cc1[C@@]21COCC(N)=N1` [compound 259], the IC50 in the assay on Aβ40 (setting [2]) worked out at 0.004 µM; on BACE it was 0.0012 µM.

For the compound `CC(C)(C)COc1ccc2c(c1)[C@]1(COCC(N)=N1)c1cc(-c3cccnc3F)ccc1O2` [Example 67, (3S)-2′-(2,2-dimethylpropoxy)-7′-(2-fluoro-3-pyridinyl)-6H-spiro[1,4-oxazine-3,9′-xanthen]-5-amine], the IC50 is 0.0155 µM in the assay on Aβ40 (setting [1]); 0.0131 µM in the assay on Aβ40 (setting [2]); 0.002 µM and 0.0007 µM at BACE.

For `NC1=N[C@@]2(COC1)c1cc(-c3cccnc3F)ccc1Oc1cnc(C3=CCOCC3)cc12` [compound 71], the values for the IC50 in the assay on Aβ40 (setting [1]) and on BACE were 0.0012 µM and 0.0004 µM, respectively.

Regarding `NC1=N[C@@]2(COC1)c1cc(-c3cc(F)ccc3F)ccc1Oc1ncc(C3CCOCC3)cc12` [compound 215], the IC50 in the assay with Aβ40 (setting [2]) amounted to 0.0032 µM; on BACE, 0.0037 µM.

On to `CC#Cc1cncc(-c2ccc3c(c2)[C@@]2(COCC(N)=N2)c2cc(C4=CCCOC4)cc(F)c2O3)c1` [Example 66, (S)-2′-(5,6-dihydro-2H-pyran-3-yl)-4′-fluoro-7′-(5-(prop-1-ynyl)pyridin-3-yl)-2,6-dihydrospiro[[1,4]oxazine-3,9′-xanthen]-5-amine], for which the IC50 with Aβ40 (setting [1]) came to 0.0015 µM; on BACE, 0.0005 µM.

In the case of `CC1(C#Cc2cnc3c(c2)[C@@]2(COCC(N)=N2)c2cc(-c4cccnc4F)ccc2O3)COC1` [compound 88], the IC50 amounted to 0.198 µM in the assay on Aβ40 (setting [1]) and 0.332 µM on BACE.

Take `NC1=NC2(CCO1)c1cc(-c3cccnc3)ccc1Oc1cnc(C3=CCOCC3)cc12` (stereo not drawn) [compound 151]: the IC50 with Aβ40 (setting [1]) was found to be 0.0034 µM; on BACE it was 0.0073 µM.

`NC1=N[C@@]2(CCO1)c1cc(-c3cccnc3F)ccc1Oc1c2cc(-c2cccnc2F)nc1F` [compound 105]: the results for the IC50 in the assay with Aβ40 (setting [1]) and on BACE were 0.0242 µM and 0.0206 µM, respectively.

Consider `COc1cc2c(cn1)Oc1ccc(-c3cccnc3F)cc1[C@@]21COCC(N)=N1` [compound 123], for which the IC50 in the assay with Aβ40 (setting [1]) was 0.0033 µM; at BACE it was 0.0022 µM.

As for `NC1=N[C@]2(CCO1)c1cc(-c3cccnc3F)ccc1Oc1c2cc(C2=CCCOC2)nc1F` [compound 238], the IC50 worked out at 0.171 µM with Aβ40 (setting [2]) and 0.293 µM at BACE.

As for `NC1=N[C@]2(CO[C@H]1C1CCCCC1)c1cc(-c3cccnc3F)ccc1Oc1cnc(Cl)cc12` (racemic) [Example 56B, (3′R,6′S)-3-chloro-6′-cyclohexyl-7-(2-fluoropyridin-3-yl)-2′,6′-dihydrospiro[chromeno[2,3-c]pyridine-5,3′-[1,4]oxazin]-5′-amine], the IC50 in the assay with Aβ40 (setting [2]) is 0.452 µM; on BACE, 1.28 µM.

`NC1=N[C@@]2(COC1)c1cc(-c3cncc(F)c3)ccc1Oc1cnc(C3=CCCOC3)cc12` [compound 121]: the IC50 stood at 0.0002 µM in the assay with Aβ40 (setting [1]) and 0.0005 µM on BACE.

As for `NC1=N[C@@]2(CCO1)c1cc(-c3cccnc3F)ccc1Oc1ncc(C3=CCOCC3)cc12` [compound 269], the IC50 with Aβ40 (setting [2]) amounted to 0.0056 µM; on BACE it was 0.012 µM.

Turning to `CC(C)(C)COc1cc2c(cn1)Oc1ccc(N3CCC(F)(F)CC3)cc1[C@@]21COCC(N)=N1` [Example 44, (S)-7-(4,4-difluoropiperidin-1-yl)-3-(neopentyloxy)-2′,6′-dihydrospiro[chromeno[2,3-c]pyridine-5,3′-[1,4]oxazin]-5′-amine], the IC50 worked out at 0.0193 µM in the assay with Aβ40 (setting [1]) and 0.0105 µM on BACE.

Regarding `NC1=N[C@]2(CCS1)c1cc(-c3cccnc3F)ccc1Oc1cnc(-c3ccnc(F)c3)cc12` [compound 189], the IC50 was 3.28 µM with Aβ40 (setting [2]) and 2.39 µM at BACE.

For the compound `NC1=N[C@@]2(COC1)c1cc(-c3cncnc3)ccc1Oc1cnc(-c3ccc(F)c(F)c3)cc12` [compound 79], the IC50 in the assay with Aβ40 (setting [1]) is 0.0008 µM; at BACE it was 0.0003 µM.

With `C[C@@H]1OC[C@@]2(N=C1N)c1cc(-c3cccnc3F)ccc1Oc1cnc(Cl)cc12` [compound 210], the IC50 in the assay with Aβ40 (setting [3]) was found to be 0.205 µM; at BACE, 0.0908 µM.

`NC1=N[C@]2(CCO1)c1cc(-c3cccnc3F)ccc1Oc1ncc(-c3ccnc(F)c3)cc12` [compound 267]: the IC50 turned out to be 3.56 µM in the assay on Aβ40 (setting [2]) and 6.67 µM at BACE.

For the compound `NC1=N[C@]2(CCO1)c1cc(-c3cncc(F)c3)ccc1Oc1c2cc(C2=CCOCC2)nc1F` [compound 229], the IC50 is 0.127 µM in the assay on Aβ40 (setting [2]) and 0.149 µM on BACE.

Regarding `CC1(COc2cc(F)c3c(c2)[C@]2(COCC(N)=N2)c2cc(-c4cccnc4F)ccc2O3)COC1` [compound 83], the IC50 in the assay on Aβ40 (setting [1]) and at BACE was 0.0004 µM throughout.

`NC1=N[C@@]2(COC1)c1cc(-c3cncnc3)ccc1Oc1cnc(-c3ccnc(F)c3)cc12` [compound 78]: the IC50 was 0.0011 µM with Aβ40 (setting [1]) and 0.0005 µM on BACE.

For the compound `COc1cc2c(cn1)Oc1ccc(-c3cc(F)ccc3Cl)cc1[C@@]21COCC(N)=N1` [compound 125], the IC50 was determined as 0.0124 µM in the assay with Aβ40 (setting [1]) and 0.0022 µM at BACE.

`CC(C)COc1cc2c(cn1)Oc1ccc(-c3cncc(F)c3)cc1[C@@]21COCC(N)=N1` [compound 254]: the IC50 stood at 0.0009 µM in the assay on Aβ40 (setting [2]) and 0.0005 µM on BACE.

For the compound `NC1=N[C@]2(CCS1)c1cc(-c3cccnc3F)ccc1Oc1ncc(C3=CCCOC3)cc12` [compound 271], the figures for the IC50 with Aβ40 (setting [2]) and on BACE were 2.54 µM and 1.04 µM, respectively.

On to `NC1=N[C@]2(CCO1)c1cc(-c3cccnc3F)ccc1Oc1c(F)cc(N3CCOCC3)cc12` [compound 179], for which the IC50 with Aβ40 (setting [2]) is 2.82 µM; at BACE it was 5.19 µM.

Turning to `NC1=N[C@]2(COC1)c1cc(-c3cccnc3F)ccc1Oc1c2cc(Cl)nc1F` [compound 244], the IC50 worked out at 3.15 µM in the assay with Aβ40 (setting [2]) and 0.481 µM at BACE.

For `CC(C)(F)COc1cc(F)c2c(c1)[C@@]1(CCSC(N)=N1)c1cc(-c3cccnc3F)ccc1O2` [compound 202], the IC50 with Aβ40 (setting [2]) was 2.43 µM; at BACE it was 0.863 µM.
